Experimental data published in patent US7365069B2, “Pyrimidone derivatives” (Bexel Pharmaceuticals Inc., priority 2002, dated 2008).

Experiments:
[1] = test system: NCI-H460; assay: DTP human tumor cell line one-dose prescreen, NCI-H460; type: cell-based; conditions: 48 hours, Alamar Blue, test/control, read-out: Percentage growth Lung NCI-H460
[2] = test system: TNF-α; assay: TNF-α production in LPS-stimulated human whole blood; type: cell-based; conditions: LPS 4 h
Procedure, shortened: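 Human whole blood pre-incubated with compound 15 min at 37° C., then stimulated with LPS (Salmonella abortus equi, 1 μg/ml) for 4 h at 37° C. in 5% CO2. TNF-α quantified by ELISA.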

[3] = test system: MCF-7; assay: DTP human tumor cell line one-dose prescreen, MCF-7; type: cell-based; conditions: MCF7, 48 hours, Alamar Blue, test/control, read-out: Percentage growth Breast MCF-7
[4] = test system: IL-6; assay: IL-6 production in LPS-stimulated human whole blood; type: cell-based; conditions: LPS 4 h
Description: This assay determines the effect of test compounds on the production of IL-6 from human whole blood. Compounds are tested for their ability to downregulate the production of IL-6 in activated whole blood. The test compounds are pre-incubated for 15 minutes at 37° C. and then stimulated with Lipopolysaccharide (Salmonella abortus equi, 1 μg/ml) for 4 h at 37° C. in 5% CO2. The levels of Interleukin-6 are estimated using Enzyme linked Immunosorbent assay performed in a 96 well format as per the procedure of the manufacturer (Cayman Chemical, Ann Arbor, USA).

[5] = test system: SF-268; assay: DTP human tumor cell line one-dose prescreen, SF-268; type: cell-based; conditions: 48 hours, Alamar Blue, test/control, read-out: Percentage growth CNS SF-268
[6] = molecular target: T1, COX-2 (Homo sapiens, UniProt P35354); assay: Human whole blood assay, COX-2 inhibition (PGE2 ELISA after LPS); type: cell-based; conditions: LPS 24 h
T1 construct: incubation of human blood with lipopolysaccharide (LPS), which induces COX-2 production in the blood; endogenous in cells; host or cells: fresh human whole blood from volunteers, treated with aspirin and then LPS
T1 sequence (P35354 18-604): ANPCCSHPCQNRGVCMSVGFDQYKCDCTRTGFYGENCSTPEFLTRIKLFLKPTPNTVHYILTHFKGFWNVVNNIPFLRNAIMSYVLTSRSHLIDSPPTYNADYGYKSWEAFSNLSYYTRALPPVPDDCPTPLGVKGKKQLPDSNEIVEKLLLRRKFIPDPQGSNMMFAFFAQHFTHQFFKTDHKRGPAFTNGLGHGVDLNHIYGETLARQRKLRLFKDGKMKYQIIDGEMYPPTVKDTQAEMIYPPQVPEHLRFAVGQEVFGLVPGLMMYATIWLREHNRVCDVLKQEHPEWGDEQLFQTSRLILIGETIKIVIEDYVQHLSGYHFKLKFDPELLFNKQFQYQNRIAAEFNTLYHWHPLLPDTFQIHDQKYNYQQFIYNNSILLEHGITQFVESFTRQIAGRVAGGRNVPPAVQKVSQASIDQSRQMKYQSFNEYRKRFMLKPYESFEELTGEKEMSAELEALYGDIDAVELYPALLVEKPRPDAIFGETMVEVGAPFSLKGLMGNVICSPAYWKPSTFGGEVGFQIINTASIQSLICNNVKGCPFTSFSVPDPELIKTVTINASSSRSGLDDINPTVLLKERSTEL
Procedure, shortened: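 Fresh EDTA blood from healthy male donors was given aspirin (10 μg/ml) to inactivate COX-1. LPS (10 μg/ml) was then added together with test agent or vehicle, and the blood was incubated 24 h at 37° C. Plasma PGE2 was measured by ELISA.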

[7] = test system: Male Wistar rats; assay: Gastroulcerogenic potential (stomach lesions after the paw edema test); type: in vivo; conditions: 10 mg/kg body weight, oral, rat
Description: (§1) The carrageenan paw edema test is performed as described by Winter et al (Proc. Soc. Exp. Biol. Med, 111, 544, 1962). Male Wistar rats are selected and the body weights are equivalent within each group. The rats are fasted for eighteen hours with free access to water. The rats are dosed orally with the test compound suspended in vehicle containing 0.5% methylcellulose. The control rats are administered the vehicle alone. After an hour, the rats are injected with 0.1 ml of 1% Carrageenan solution in 0.9% saline into the sub-plantar surface of the right hind paw. Paw volume is measured using water plethysmograph before and after 3 hours of carrageenan injection. The average of foot swelling in drug treated animals is compared with that of control animals. Anti-inflammatory activity is expressed as the percentage inhibition of edema compared with control group [Arzneim-Forsch/Drug Res., 43(I), 1, 44-50,1993; Ottemess and Bliven, Laboratory Models for Testing NSAIDs, In Non-Steroidal Anti-Inflammatory Drugs, (J. Lombardino, ed. 1985)]. In order to evaluate their role on the ulcer formation, the animals are sacrificed and the stomach is taken out and flushed with 1% formalin. The stomach is opened along the greater curvature. The haemorrhagic puncta and sulci are identified microscopically and images are captured. The stomach lesions are calculated.

[8] = test system: Male Wistar rats; assay: Rat carrageenan paw edema test; type: in vivo; conditions: 10 mg/kg body weight, oral, paw volume 3 hours after carrageenan, read-out: Rat Paw Edema model % inhibition
Description: Rat Carrageenan Paw Edema Test
as §1

| melting point [°C] | SMILES | activity at 50 µM [1] [%] | activity at 50 µM [3] [%] | inhibition at 1 µM [4] [%] | activity at 50 µM [5] [%] | Gastroulcerogenic potential (% incidence of ulceration) [7] [%] | inhibition in vivo at 10 mg/kg [8] [%] | further results |
| --- | --- | --- | --- | --- | --- | --- | --- | --- |
| 219 to 222 | CNc1nc(-c2ccc(F)cc2)n(-c2ccc(SC)cc2)c(=O)c1C#N [Example 56, 5-cyano-2-(4-fluorophenyl)-4-(methylamino)-1-[4-(methylthio)phenyl]-6-oxo-1,6-dihydropyrimidine] | 54 | 63 |  | 87 |  |  |  |
| 255 to 258 | CS(=O)(=O)c1ccc(-n2c(-c3ccc(F)cc3)nc(N3CCOCC3)c(C(N)=O)c2=O)cc1 [Example 50, 5-carboxamido-2-(4-fluorophenyl)-1-[4-(methylsulfonyl)phenyl]-4-morpholin-4-yl-6-oxo-1,6-dihydropyrimidine] | 94 | 92 |  | 97 |  |  |  |
| 242 to 244 | CSc1nc(-c2ccc(S(C)(=O)=O)cc2)n(-c2ccc(C)cc2)c(=O)c1C#N [Example 7, 5-cyano-2-[(4-methylsulphonyl)phenyl]-4-(methylthio)-1-(4-methylphenyl)-6-oxo-1,6-dihydropyrimidine] |  |  | 37.1 |  | 25 | 28.1 | inhibition at 0.25 µM ([6]; 0.25 μM): 31.7% |
| > 300 | CNc1nc(-c2ccc(F)cc2)n(-c2ccc(S(C)(=O)=O)cc2)c(=O)c1C(N)=O [Example 49, 5-carboxamido-2-(4-fluorophenyl)-4-(methylamino)-1-[4-(methylsulfonyl)phenyl]-6-oxo-1,6-dihydropyrimidine] | 72 | 79 |  | 88 |  |  |  |

The remaining lines, values behind:

| SMILES | melting point [°C] | activity at 50 µM [1] [%] | activity at 50 µM [3] [%] | inhibition at 1 µM [4] [%] | activity at 50 µM [5] [%] | Gastroulcerogenic potential (% incidence of ulceration) [7] [%] | inhibition in vivo at 10 mg/kg [8] [%] | further results |
| --- | --- | --- | --- | --- | --- | --- | --- | --- |
| CSc1ccc(-c2nc(SC)c(C#N)c(=O)n2-c2ccc(C(C)(C)C)cc2)cc1 [Example 22, 1-(4-tert-butylphenyl)-5-cyano-4-(methylthio)-2-[4-(methylthio)phenyl]-6-oxo-1,6-dihydropyrimidine] | 233 to 236 | 80 | 83 | 66.3 |  |  |  | inhibition at 1 µM [2]: 62.7% |
| CSc1ccc(-n2c(-c3ccc(Cl)cc3)nc(SC)c(C#N)c2=O)cc1 [Example 1, 5-cyano-2-(4-chlorophenyl)-4-(methylthio)-1-[4-(methylthio)phenyl]-6-oxo-1,6-dihydropyrimidine] | 206 to 207 |  |  |  |  | 75 | 29 | inhibition at 10 µM [6]: 13%; inhibition at 0.1 µM ([2]; 0.1 μM): 56.9%; inhibition at 0.1 µM ([4]; 0.1 μM): 52.8% |
| CSc1ccc(-n2c(-c3ccc(C(F)(F)F)cc3)nc(SC)c(C#N)c2=O)cc1 [Example 4] | 228 to 229 |  |  |  |  | 25 | 38.5 | inhibition at 10 µM [6]: 50.1%; inhibition at 0.25 µM [4]: 48.4% |
| CSc1ccc(-c2nc(SC)c(C#N)c(=O)n2-c2ccc(C)cc2)cc1 [Example 6, 5-cyano-1-(4-methylphenyl)-4-(methylthio)-2-[4-(methylthio)phenyl]-6-oxo-1,6-dihydropyrimidine] | 196 to 198 |  |  |  |  | 25 | 40.2 | inhibition at 1 µM ([6]; 1 μM): 55.7%; inhibition at 1 µM [2]: 28.8%; inhibition at 0.25 µM [4]: 41.4% |
| CSc1ccc(-c2nc(SC)c(C#N)c(=O)n2-c2ccc(C)c(C)c2)cc1 [Example 10, 5-cyano-1-(3,4-dimethylphenyl)-4-(methylthio)-2-[4-(methylthio)phenyl]-6-oxo-1,6-dihydropyrimidine] | 234 to 236 |  |  | 48.6 |  | 0 | 68.6 | inhibition at 0.1 µM ([6]; 0.1 μM): 62.8%; inhibition at 10 µM ([2]; 10 μM): 26.4% |
